Data as given in article PMC10763724 (Molecular cancer therapeutics, 2019).
Like-named read-outs stand apart in the source and are kept apart here.

How the values were obtained:
[1] = system: ALDH1A1; conditions: cited from earlier work
[2] = system: ALDH2; conditions: read-out: IC50 for ALDH2; cited from earlier work
[3] = system: HNSCC xenograft models; conditions: 24 mg/kg/day, implantable osmotic mini pumps; cited from earlier work
[4] = system: ALDH3A1; conditions: cited from earlier work
[5] = biological target: T1, ALDH2 (Homo sapiens, UniProt P05091); assay: ALDH2 isoform-specific enzyme assay; type: biochemical; conditions: read-out: IC50s ALDH2; acetaldehyde substrate, 15 minutes preincubation
T1 sequence (P05091 18-517): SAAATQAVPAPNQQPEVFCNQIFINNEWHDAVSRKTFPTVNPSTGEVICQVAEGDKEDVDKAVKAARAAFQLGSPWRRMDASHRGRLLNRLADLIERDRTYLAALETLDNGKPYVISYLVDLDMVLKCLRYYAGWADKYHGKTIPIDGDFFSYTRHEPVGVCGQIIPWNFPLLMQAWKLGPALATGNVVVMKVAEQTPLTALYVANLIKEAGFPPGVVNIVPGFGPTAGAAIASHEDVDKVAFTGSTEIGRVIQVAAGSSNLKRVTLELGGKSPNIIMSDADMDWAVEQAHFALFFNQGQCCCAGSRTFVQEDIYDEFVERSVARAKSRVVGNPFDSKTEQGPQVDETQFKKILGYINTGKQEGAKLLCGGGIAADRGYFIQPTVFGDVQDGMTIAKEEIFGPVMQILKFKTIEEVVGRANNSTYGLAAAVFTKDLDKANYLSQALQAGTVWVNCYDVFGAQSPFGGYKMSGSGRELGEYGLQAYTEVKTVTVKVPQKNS

[6] = biological target: T2, ALDH1A1 (Homo sapiens, UniProt P00352); assay: ALDH1A1 isoform-specific enzyme assay; type: biochemical; conditions: 15 minutes preincubation
T2 sequence (P00352 1-501): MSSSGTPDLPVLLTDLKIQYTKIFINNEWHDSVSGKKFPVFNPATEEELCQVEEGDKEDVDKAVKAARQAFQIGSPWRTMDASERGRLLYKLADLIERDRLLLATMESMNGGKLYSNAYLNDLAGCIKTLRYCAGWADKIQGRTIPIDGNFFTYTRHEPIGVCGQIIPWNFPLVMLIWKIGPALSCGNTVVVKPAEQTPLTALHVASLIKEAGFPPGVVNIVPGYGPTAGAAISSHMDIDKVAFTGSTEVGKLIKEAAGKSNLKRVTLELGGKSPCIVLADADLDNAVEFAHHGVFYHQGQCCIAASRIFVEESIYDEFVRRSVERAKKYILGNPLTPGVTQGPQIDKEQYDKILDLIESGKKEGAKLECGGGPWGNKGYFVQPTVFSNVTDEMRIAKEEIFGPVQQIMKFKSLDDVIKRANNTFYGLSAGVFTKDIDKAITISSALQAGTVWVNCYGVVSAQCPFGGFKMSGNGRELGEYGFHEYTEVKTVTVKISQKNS

[7] = system: UACC 903 and 1205 Lu cells; assay: Lipid peroxidation; type: cell-based, human; conditions: 5 μmol/L, 24 hours
[8] = system: UACC 903 and 1205 Lu cells; assay: ROS assay; type: cell-based, human; conditions: 5 μmol/L, 24 hours
[9] = system: UACC 903 cells; assay: MTS cell viability assay, UACC 903; type: cell-based, human; conditions: 100 μmol/L, 72 hours
[10] = biological target: T3, ALDH3A1 (Homo sapiens, UniProt P30838); assay: ALDH3A1 isoform-specific enzyme assay; type: biochemical; conditions: 15 minutes preincubation
T3 sequence (P30838 1-453): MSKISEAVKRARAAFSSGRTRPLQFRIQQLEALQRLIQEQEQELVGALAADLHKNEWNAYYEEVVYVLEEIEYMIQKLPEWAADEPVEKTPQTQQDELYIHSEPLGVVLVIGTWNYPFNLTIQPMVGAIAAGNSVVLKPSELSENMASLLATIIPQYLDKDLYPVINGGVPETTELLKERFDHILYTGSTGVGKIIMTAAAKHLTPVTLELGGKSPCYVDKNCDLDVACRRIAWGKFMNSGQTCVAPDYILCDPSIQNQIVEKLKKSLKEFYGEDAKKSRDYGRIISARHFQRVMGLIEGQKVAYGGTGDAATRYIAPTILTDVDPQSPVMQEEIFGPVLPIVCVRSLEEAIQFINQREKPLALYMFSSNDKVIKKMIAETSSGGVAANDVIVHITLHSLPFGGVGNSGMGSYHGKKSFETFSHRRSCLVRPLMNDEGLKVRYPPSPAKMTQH

[11] = system: total cellular ALDH activity, 1205 Lu cell lysates; assay: Total cellular ALDH activity assay, 1205 Lu cell lysates; type: biochemical, human; conditions: 1 μmol/L, 15 minutes
[12] = system: total cellular ALDH activity, UACC 903 cell lysates; assay: Total cellular ALDH activity assay, UACC 903 cell lysates; type: biochemical, human; conditions: 1 μmol/L, 15 minutes

For CN(C)CCC(=O)c1ccc(Br)cc1 [Aldi-6], the IC50 ([1]; read-out: IC50 for ALDH1A1) is given as 0.6 µM, the IC50 [2] is given as 0.8 µM and the “tumor reduction in HNSCC xenograft models” value [3] is given as 60%. For the same molecule, the IC50 ([4]; read-out: IC50 for ALDH3A1) was 1 µM.
In the case of Cc1nc2ccccc2n1S(=O)(=O)c1ccc(F)cc1 [CB7], the IC50 [5] is reported as 144 µM and the IC50 ([6]; read-out: IC50s ALDH1A1, propionaldehyde substrate) is reported as 139 µM.
With CCOC(=O)CSc1nc2c(sc3ccccc32)c(=O)n1CCCN1CCCC1 [CM037] the “lipid peroxidation and toxic aldehyde accumulation” value [7] was “significantly increased lipid peroxidation and toxic aldehyde accumulation” and the ROS levels [8] was “significantly increased ROS levels”.
For CCN(CC)c1ccc(C=O)cc1 [DEAB], the “reduction of UACC 903 cell survival” value [9] was 30%, the “lipid peroxidation and toxic aldehyde accumulation” value [7] was “significantly increased lipid peroxidation and toxic aldehyde accumulation” and the ROS levels [8] was “significantly increased ROS levels”. The IC50 ([10]; read-out: IC50s ALDH3A1, 4-nitrobenzaldehyde substrate) was 15.1 µM.
For CSC(=O)C#CC(C)(C)N(C)C [DIMATE, 4-dimethylamino-4-methyl–pent-2-ynthioic acid-S-methylester], the IC50 ([1]; read-out: IC50 toward ALDH1A1) is given as 5 µM and the IC50 ([4]; read-out: IC50 toward ALDH3A1) is given as 5 µM.
With O=C1Nc2ccccc2C1=O [Isatin] the “reduction of total cellular ALDH activity, 1205 Lu” value [11] was “ineffective”, the IC50 ([10]; IC50s ALDH3A1, 4-nitrobenzaldehyde substrate) was 5.05 µM and the “reduction of total cellular ALDH activity, UACC 903” value [12] was “ineffective”. For the same molecule, the IC50 ([6]; IC50s ALDH1A1, propionaldehyde substrate) was 15.6 µM.
